According to patent US12171835B2, “Furan-aspidospermine dimer or pharmaceutically acceptable salt thereof, and preparation method, use and pharmaceutical composition” (Kunming Inst. of Botany, Chinese Acad. of Sciences, priority 2021, dated 2024):

Tests used:
[1] = tested on: bone marrow-derived macrophages (BMMs); assay: Activated immune test: ARG1 activity / M2 polarization in IL-4-stimulated BMMs; assay type: cell-based, mouse; settings: FIG. 1C, FIG. 2
[2] = tested on: bone marrow-derived macrophages (BMMs); assay: as above; assay type: cell-based, mouse; settings: for inhibition of the expression of arginase induced by IL-4 in macrophages: BMMs pretreated with drug (1 μM), IL-4 stimulation 12 h, absorbance at 540 nm, FIG. 1
Description: Activated immune test: bone marrow-derived macrophages (BMMs), as primary cells isolated from bone marrow and subjected to induced culture that can well reflect functions of the macrophages, are commonly used cells to study the functions of the macrophages. A mouse femur bone marrow was isolated and cultured in a medium containing an mCSF factor for 6-7 d to obtain mature BMMs; stimulation with IL-4 for 12 h can induce polarization of the BMMs to an immunosuppressive M2 type with high expression of ARG1; after the ARG1 protein was extracted, arginine hydrolysis was conducted in vitro, and color development was further conducted by reacting α-isonitrosopropiophenone with a hydrolyzate urea; an absorbance was measured at a wavelength of 540 nm as a marker of an ARG1 activity. A specific process was as follows: cells were pretreated with drugs (1 μM) (including the CPLD, CPLL, TBYA, MDK, HMD, compounds 1-3 and compounds 5-7); IL-4 stimulation was conducted for 12 h, followed by washing with PBS, and cells were lysed with a lysis buffer containing a protease inhibitor, and a total cell protein was obtained; after adding […] to 0.4 mM Mn^2, the total cell protein was heated at 55° C. for 10 min to fully activate an arginase ARG1. 0.5 mM arginine was added for incubation at 37° C. for 1 h to 2 h to fully hydrolyze the arginine. An acid solution containing sulfuric acid and phosphoric acid was added to stop the reaction, a 9% α-isonitrosopropiophenone ethanol solution was added, followed by heating at 95° C. for 15 min to 30 min to develop color.

[3] = tested on: CD8+ T cells and other immune cells in the tumor; assay: FACS analysis / intracellular staining of immune cells in the tumors; assay type: in vivo, mouse
Description: Validation of improving and enhancing CD8^+ T cell function: through FACS analysis, the test results of compound 1 are shown in FIG. 3. […] In addition, the compound 1 is able to down-regulate a proportion of CD206^+ macrophages (FIG. 4).
(§1) Further immunofluorescence staining experiments also find that the CPLD can increase the proportion of CD8 T cells and promote the expression of Granzyme B (L). Further, mice were continuously injected with anti-CD8 antibodies to delete CD8+ T cells in the mice, to construct a melanoma model, followed by investigation of an anti-tumor activity of the compounds.

CD8 T cells = assay: immunofluorescence staining of tumors; assay type: in vivo, mouse; settings: FIG. 5L
Description: as §1

tumor = assay: nude mouse tumor model (CPLD); assay type: in vivo; settings: FIG. 5M to N
melanoma = assay: CD8+ T cell-depleted melanoma model (anti-CD8 antibodies); assay type: in vivo, mice; settings: FIG. 5M to N
Description: as §1

19′-hydroxymelodinineK [HMD]
inhibition of M2 polarization of the macrophages, concentration dependence [1]: inhibit M2 polarization of the macrophages in a concentration-dependent manner
inhibition of the expression of arginase induced by IL-4 in macrophages [2]: significantly inhibit

CC[C@@]12C=CCN3CC[C@]4(C(=C(C(=O)OC)C1)Nc1cc5c(cc14)[C@H]1[C@@H](O5)[C@H](O)[C@]4(CC)CC(C(=O)OC)=C5Nc6c(cc(O)c(OC)c6OC)[C@@]56CCN1[C@H]46)[C@H]32 [CPLD, conophyllidine]
effect on CD4 T cells ([3]; FACS analysis): no significant effect
effect on Treg cells (proportion) ([3]; FACS analysis): no effect
proportion of CD8+ T cells in the tumor ([3]; FACS analysis): significantly increase
expression of Granzyme B in CD8+ T cells ([3]; intracellular staining): enhance
expression of IFNγ in CD8+ T cells ([3]; intracellular staining): enhance
expression of TNFα in CD8+ T cells ([3]; intracellular staining): enhance
function of the CD8+ T cells ([3]; intracellular staining): promote
expression of Granzyme B (CD8 T cells): promote
proportion of CD8 T cells (CD8 T cells): increase
anti-tumor effect (tumor): significantly reduced
anti-tumor effect (melanoma): significantly reduced
inhibition of M2 polarization of the macrophages, concentration dependence [1]: inhibit M2 polarization of the macrophages in a concentration-dependent manner
inhibition of the expression of arginase induced by IL-4 in macrophages [2]: significantly inhibit

CC[C@@]12CC(C(=O)OC)=C3Nc4cc5c(cc4[C@@]34CCN(C[C@H]3O[C@H]31)[C@@H]24)[C@@H]1[C@H](O5)[C@@H](O)[C@@]2(CC)CC(C(=O)OC)=C3Nc4c(cc(O)c(OC)c4OC)[C@@]34CCN1[C@@H]24 [CPLL, conophylline]
inhibition of M2 polarization of the macrophages, concentration dependence [1]: inhibit M2 polarization of the macrophages in a concentration-dependent manner
inhibition of the expression of arginase induced by IL-4 in macrophages [2]: significantly inhibit

Ibogabisindole [reference compound]
activity of inhibiting M2 polarization in macrophages ([2]; comparison substances lacking the furan-aspidospermine dimer skeleton): neither the furan-ringed aspidospermine, Corynantheine, nor the furan-ringed aspidospermine, Ibogabisindole, have the activity

melodinine K [MDK]
inhibition of M2 polarization of the macrophages, concentration dependence [1]: inhibit M2 polarization of the macrophages in a concentration-dependent manner
inhibition of the expression of arginase induced by IL-4 in macrophages [2]: significantly inhibit

taberyunine A [TBYA]
inhibition of M2 polarization of the macrophages, concentration dependence [1]: inhibit M2 polarization of the macrophages in a concentration-dependent manner
inhibition of the expression of arginase induced by IL-4 in macrophages [2]: significantly inhibit
